Test [1] deals with CCRF-CEM. As to the kind of experiment: Antiproliferative activity against human CCRF-CEM cells assessed as inhibition of cell viability measured after 48 hrs by MTT assay. Type of test: functional, cell-based. For orientation: Formazan colour is commonly taken as a measure of viable cells.
The test system of test [2] is K562. As to the kind of experiment: Antiproliferative activity against human K562 cells assessed as inhibition of cell viability measured after 48 hrs by MTT assay. Type of test: functional, cell-based. To be noted: K562, 48 h.
The test system of test [3] is U-937. As to the kind of experiment: Antiproliferative activity against human U-937 cells assessed as inhibition of cell viability measured after 48 hrs by MTT assay. It is filed as functional, cell-based. The settings on record: U-937, 48 h.
The target in test [4] is T1, Eukaryotic elongation factor 2 kinase (Homo sapiens, UniProt O00418).
T1 sequence (O00418 whole entry): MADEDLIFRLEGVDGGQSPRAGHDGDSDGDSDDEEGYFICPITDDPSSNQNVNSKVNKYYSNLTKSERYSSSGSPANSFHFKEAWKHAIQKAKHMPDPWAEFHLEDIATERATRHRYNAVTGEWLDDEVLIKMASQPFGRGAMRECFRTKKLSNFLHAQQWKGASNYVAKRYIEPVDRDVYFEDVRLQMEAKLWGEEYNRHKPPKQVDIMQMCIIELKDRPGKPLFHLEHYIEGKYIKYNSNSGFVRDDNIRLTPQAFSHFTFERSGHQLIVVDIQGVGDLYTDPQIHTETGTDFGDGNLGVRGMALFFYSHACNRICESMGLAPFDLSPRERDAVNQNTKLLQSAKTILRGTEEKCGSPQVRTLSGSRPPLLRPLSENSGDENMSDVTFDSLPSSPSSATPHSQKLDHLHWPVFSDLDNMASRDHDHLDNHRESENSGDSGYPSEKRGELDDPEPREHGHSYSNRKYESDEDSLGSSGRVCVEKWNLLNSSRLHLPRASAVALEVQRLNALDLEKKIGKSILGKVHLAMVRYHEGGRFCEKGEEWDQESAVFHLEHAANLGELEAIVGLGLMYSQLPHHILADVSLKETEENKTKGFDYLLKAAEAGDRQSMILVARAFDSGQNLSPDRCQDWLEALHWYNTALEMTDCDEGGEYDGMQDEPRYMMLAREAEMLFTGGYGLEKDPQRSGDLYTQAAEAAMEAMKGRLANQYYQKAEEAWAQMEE
As to the kind of experiment: Inhibition of eEF2K (unknown origin).

For test [5], the target named is T2, Eukaryotic elongation factor 2 kinase (Homo sapiens) (UniProt O00418).
T2 sequence (whole entry): T1 sequence (O00418 whole entry)
As to the kind of experiment: Inhibition of eEF2K in human CCRF-CEM cells assessed as decrease in phosphorylation of Akt up to 16 uM measured after 48 hrs by Western blot analysis. Type of test: cell-based. In general terms: In western blotting, separated proteins are transferred to a membrane and probed.

Test [6] relates to CCRF-CEM. As to the kind of experiment: Induction of apoptosis in human CCRF-CEM cells assessed as increase in cleaved caspase-9 level at 5 uM by Western blot analysis. The settings on record: time <= 48.0 hrs, TDE = time-dependent effect. Type of test: functional, cell-based.
For test [7], the target named is T2, Eukaryotic elongation factor 2 kinase (Homo sapiens). As to the kind of experiment: Inhibition of eEF2K in human CCRF-CEM cells assessed as decrease in phosphorylation of eEF2 at threonine 58 residue up to 16 uM measured after 48 hrs by Western blot analysis. Type of test: cell-based.
The subject of test [8] is CCRF-CEM. As to the kind of experiment: Induction of cell cycle arrest in human CCRF-CEM cells assessed as accumulation at G0/G1 phase at 2 uM incubated for 48 hrs by PI staining based flow cytometry analysis (reference value: 71.3%). It is filed as functional. (In general: Flow cytometry measures light scatter and fluorescence of single cells or particles in a stream.)

In test [9] the target is T2, Eukaryotic elongation factor 2 kinase (Homo sapiens). As to the kind of experiment: Inhibition of eEF2K in human CCRF-CEM cells assessed as decrease in phosphorylation of mTOR at 5 uM measured up to 48 hrs by Western blot analysis. It is filed as cell-based.
Test [10] has as its system CCRF-CEM. As to the kind of experiment: Induction of cell cycle arrest in human CCRF-CEM cells assessed as accumulation at G0/G1 phase at 8 uM incubated for 48 hrs by PI/ RNaseA staining based flow cytometry analysis (reference value: 71.3%). Type of test: functional.
Test [11] relates to CCRF-CEM. As to the kind of experiment: Induction of apoptosis in human CCRF-CEM cells assessed as late apoptotic cells up to 8 uM measured after 48 hrs by AnnexinV-FITC/PI staining based flow cytometry method. It is filed as functional.
Test [12] addresses T2, Eukaryotic elongation factor 2 kinase (Homo sapiens). As to the kind of experiment: Inhibition of eEF2K in human CCRF-CEM cells assessed as decrease in MAPK protein expression level up to 16 uM measured after 48 hrs by Western blot analysis. Type of test: cell-based.
For test [13] the target is unchanged. As to the kind of experiment: Inhibition of eEF2K in human CCRF-CEM cells assessed as decrease in phosphorylation of MAPK up to 16 uM measured after 48 hrs by Western blot analysis. Type of test: cell-based.
Test [14] has the same target. As to the kind of experiment: Inhibition of eEF2K in human CCRF-CEM cells assessed as decrease in phosphorylation of MAPK at 5 uM measured up to 48 hrs by Western blot analysis. It is filed as cell-based.
Test [15] relates to CCRF-CEM. As to the kind of experiment: Induction of cell cycle arrest in human CCRF-CEM cells assessed as accumulation at G0/G1 phase at 4 uM incubated for 48 hrs by PI/ RNaseA staining based flow cytometry analysis (reference value: 71.3%). Type of test: functional.
For test [16], the system named is CCRF-CEM. As to the kind of experiment: Induction of apoptosis in human CCRF-CEM cells assessed as increase in cleaved caspase-8 level at 5 uM by Western blot analysis. It is filed as functional, cell-based. To be noted: time <= 48.0 hrs, TDE = time-dependent effect.
Test [17] concerns the target T2, Eukaryotic elongation factor 2 kinase (Homo sapiens). As to the kind of experiment: Inhibition of eEF2K in human CCRF-CEM cells assessed as decrease in phosphorylation of Akt at 5 uM measured up to 48 hrs by Western blot analysis. Type of test: cell-based.
The target is the same in test [18]. As to the kind of experiment: Inhibition of eEF2K in human CCRF-CEM cells assessed as decrease in phosphorylation of mTOR up to 16 uM measured after 48 hrs by Western blot analysis. It is filed as cell-based.
Test [19] concerns CCRF-CEM. As to the kind of experiment: Induction of apoptosis in human CCRF-CEM cells assessed as increase in cleaved PARP level at 5 uM by Western blot analysis. It is filed as functional, cell-based. The settings on record: time <= 48.0 hrs, TDE = time-dependent effect.
Test [20] has as its system CCRF-CEM. As to the kind of experiment: Induction of apoptosis in human CCRF-CEM cells assessed as early apoptotic cells up to 8 uM measured after 48 hrs by AnnexinV-FITC/PI staining based flow cytometry method. Type of test: functional.
The target in test [21] is T2, Eukaryotic elongation factor 2 kinase (Homo sapiens). As to the kind of experiment: Inhibition of eEF2K in human CCRF-CEM cells assessed as decrease in phosphorylation of eEF2 at threonine 56 residue up to 16 uM measured after 48 hrs by Western blot analysis. Type of test: cell-based.
For test [22] the target is unchanged. As to the kind of experiment: Inhibition of eEF2K in human CCRF-CEM cells assessed as decrease in phosphorylation of eEF2 at 5 uM measured up to 48 hrs by Western blot analysis. Type of test: cell-based.
The subject of test [23] is CCRF-CEM. As to the kind of experiment: Induction of apoptosis in human CCRF-CEM cells assessed as increase in cleaved caspase-3 level at 5 uM by Western blot analysis. Type of test: functional, cell-based. The settings on record: time <= 48.0 hrs, TDE = time-dependent effect.

The source made the active and inactive calls. The rule behind the calls is not given here. Some results are limits rather than exact numbers.

One may read the IC50 as the midpoint of a concentration-inhibition curve. Regarding `COc1ccc2[nH]cc(CCNCCC(=O)Nc3ccccc3)c2c1`, the figures for the IC50 in [1], in test [2] and in test [3] were 9.79 µM, 7.83 µM and 15.2 µM, respectively.
Taken in the same sequence, the figures for `Cc1ccc(NC(=O)CCNCCc2c[nH]c3ccccc23)c(N)c1` were over 50 µM, over 50 µM and over 50 µM.
Consider `O=S(=O)(c1ccc(Cl)cc1)C1(S(=O)(=O)c2ccc(Cl)cc2)CC1`, for which, in test [4], the 50% inhibitory concentration (IC50) turned out to be 69 nM.
As to `COc1ccc2[nH]cc(CCNCC(C)C(=O)Nc3ccccc3)c2c1` (racemic), the IC50 in test [1] was 9.16 µM; in test [2], 37.5 µM; in test [3], over 50 µM.
As to `O=C(CCNCCc1c[nH]c2ccc(Cl)cc12)Nc1ccccc1`, the inhibition result in [5], in test [7], in test [9], in [12], in [13] and in test [14] was “Active” in each case. The inhibition entry in test [17], in test [18], in test [21] and in test [22] was “Active” in each case. Further, the Activity result in test [6] is “Tde”; in [8], 80.8%; in test [10], 92.3%; in test [11], 23.1%; in test [15] it was 89.7%; in test [16] it was “Tde”. Besides, the Activity result in [19] is “Tde”; in [20], 0.021%; in [23] it was “Tde”. The concentration for half-maximal inhibition (IC50) in [1] is 1.63 µM; in test [2], 3.54 µM; in [3], 2.12 µM.
As to `Nc1cc(F)ccc1NC(=O)CCNCCc1c[nH]c2ccccc12`, the IC50 was 6.2 µM in [1], over 50 µM in test [2] and over 50 µM in [3].
Take `O=C(Nc1ccc(F)cc1F)N1CCCN(Cc2ccccc2)CC1`: in test [4], the IC50 was determined as 32 nM.
Still for that read-out and setting: under `Cc1ccc(C2=NC(C)(O)CC(C(C)C)[Se]2)cc1` (stereo unspecified) stands 1500 nM.
As for `CC(CNCCc1c[nH]c2ccccc12)C(=O)Nc1ccccc1` (racemic), the IC50 worked out at 3.9 µM in test [1], 7 µM in test [2] and 11.4 µM in test [3].
Regarding `O=C1CC(c2ccccc2)c2cccc(N3CCCC3)c21` (stereo unspecified), in test [4], the IC50 amounted to 230 nM.
`COc1ccc2[nH]cc(CCNCCC(=O)Nc3ccc(C)cc3[N+](=O)[O-])c2c1`: the IC50 is 14.5 µM in test [1], 48.1 µM in [2] and over 50 µM in test [3].
Taken in the same sequence, the figures for `COc1ccc2[nH]cc(CCNCCC(=O)Nc3ccc(C)cc3N)c2c1` were over 50 µM, over 50 µM and over 50 µM.
In the same order, the values of `COc1ccc2[nH]cc(CCNCCC(=O)Nc3ccccc3N)c2c1` are 4.71 µM, 16.5 µM and 11.2 µM.
Taken in the same sequence, the figures for `CC(CNCCc1c[nH]c2ccccc12)C(=O)Nc1ccccc1N` (racemic) were 4.45 µM, 33.8 µM and over 50 µM.
On to `COc1ccc2[nH]cc(CCNCC(C)C(=O)Nc3ccc(C)cc3N)c2c1` (racemic), for which the IC50 was over 50 µM in test [1], 39.2 µM in test [2] and over 50 µM in test [3].
